Experimental data as given in US6743800B1, “Naphthyridine derivatives, processes for their preparation, their use and pharmaceutical compositions comprising them” (Aventis Pharma Deutschland GmbH, priority 1999, dated 2004).
pIC50: −log10 of the molar value.

Experiments:
[1] = target: 293 cells cotransfected with αv and β3 subunits of the vitronectin receptor αvβ3 (Homo sapiens, UniProt P05106+P06756); test: Vitronectin/293 cell test (inhibition of binding of 293 cells to human vitronectin); type: cell-based; details: inhibition of binding of αvβ3-expressing 293 cells to human vitronectin; read-out: Vn/293 cell test IC50
Sequence of 293 cells cotransfected with αv and β3 subunits of the vitronectin receptor αvβ3 (P05106 whole entry): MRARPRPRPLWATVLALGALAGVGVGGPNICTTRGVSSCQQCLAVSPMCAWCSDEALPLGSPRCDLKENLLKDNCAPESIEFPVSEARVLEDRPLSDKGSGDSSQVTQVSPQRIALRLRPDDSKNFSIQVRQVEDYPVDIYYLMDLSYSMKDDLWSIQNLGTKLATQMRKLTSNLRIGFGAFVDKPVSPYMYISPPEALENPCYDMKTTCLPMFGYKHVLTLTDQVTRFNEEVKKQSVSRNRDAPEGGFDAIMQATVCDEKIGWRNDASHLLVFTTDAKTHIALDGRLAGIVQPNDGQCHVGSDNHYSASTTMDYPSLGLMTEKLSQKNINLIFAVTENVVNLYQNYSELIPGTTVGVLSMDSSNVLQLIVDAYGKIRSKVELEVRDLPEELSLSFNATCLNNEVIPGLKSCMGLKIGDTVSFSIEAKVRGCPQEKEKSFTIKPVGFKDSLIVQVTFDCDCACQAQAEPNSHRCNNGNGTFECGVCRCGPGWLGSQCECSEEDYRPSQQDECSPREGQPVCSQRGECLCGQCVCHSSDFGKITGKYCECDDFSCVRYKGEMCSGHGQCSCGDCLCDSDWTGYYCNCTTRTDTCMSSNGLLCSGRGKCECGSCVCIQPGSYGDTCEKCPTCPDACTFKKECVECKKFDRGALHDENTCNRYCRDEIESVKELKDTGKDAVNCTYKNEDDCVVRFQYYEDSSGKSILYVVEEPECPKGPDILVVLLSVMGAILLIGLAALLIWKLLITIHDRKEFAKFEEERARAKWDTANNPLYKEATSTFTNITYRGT
Sequence of 293 cells cotransfected with αv and β3 subunits of the vitronectin receptor αvβ3 (P06756 whole entry): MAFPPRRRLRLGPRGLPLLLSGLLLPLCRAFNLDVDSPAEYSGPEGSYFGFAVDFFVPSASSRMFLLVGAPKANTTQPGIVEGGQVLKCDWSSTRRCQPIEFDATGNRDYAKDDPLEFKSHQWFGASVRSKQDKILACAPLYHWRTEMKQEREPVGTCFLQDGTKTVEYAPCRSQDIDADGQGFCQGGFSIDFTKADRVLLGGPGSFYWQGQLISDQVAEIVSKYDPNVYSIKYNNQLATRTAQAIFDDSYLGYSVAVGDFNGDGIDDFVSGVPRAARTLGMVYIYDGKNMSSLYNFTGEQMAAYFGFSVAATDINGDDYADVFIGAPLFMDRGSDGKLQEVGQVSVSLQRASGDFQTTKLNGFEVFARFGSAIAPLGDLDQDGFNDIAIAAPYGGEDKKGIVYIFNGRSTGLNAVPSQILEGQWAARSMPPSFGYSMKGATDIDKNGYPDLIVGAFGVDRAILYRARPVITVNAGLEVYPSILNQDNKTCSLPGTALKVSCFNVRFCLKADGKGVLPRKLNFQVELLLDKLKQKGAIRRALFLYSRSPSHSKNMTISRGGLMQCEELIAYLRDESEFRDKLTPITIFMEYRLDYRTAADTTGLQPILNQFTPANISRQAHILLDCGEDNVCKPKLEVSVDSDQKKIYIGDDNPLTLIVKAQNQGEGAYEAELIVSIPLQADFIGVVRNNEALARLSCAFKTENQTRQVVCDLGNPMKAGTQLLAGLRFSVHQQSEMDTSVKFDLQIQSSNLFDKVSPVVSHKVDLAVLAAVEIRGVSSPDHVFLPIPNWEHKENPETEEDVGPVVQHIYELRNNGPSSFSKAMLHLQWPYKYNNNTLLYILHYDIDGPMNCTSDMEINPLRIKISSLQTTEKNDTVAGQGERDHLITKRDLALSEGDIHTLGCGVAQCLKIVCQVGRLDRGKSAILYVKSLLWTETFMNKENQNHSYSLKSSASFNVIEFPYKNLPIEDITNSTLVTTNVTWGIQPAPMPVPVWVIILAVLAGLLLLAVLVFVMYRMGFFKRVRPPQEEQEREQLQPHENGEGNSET
Procedure: 2) Vitronectin/293 Cell Test
In this test the inhibition of binding of 293 cells to human vitronectin (Vn) by the compounds of the invention is determined (the test method is abbreviated as Vn/293 cell test in the listing of the test results).
Purification of Human Vitronectin
Human vitronectin was isolated from human plasma and purified by affinity chromatography according to the method of Yatohgo et al., Cell Structure and Function 23 (1988) 281.
293 cells, a human embryonic kidney cell line, which were cotransfected with DNA sequences for the αv and β3 subunits of the vitronectin receptor αvβ3, were selected for a high rate of expression (>500,000 αvβ3 receptors/cell) according to the FACS method. The selected cells were cultured and sorted again by means of FACS in order to obtain a stable cell line (15 D) with expression rates >1,000,000 copies of αvβ3 per cell.
A Linbro 96-well tissue culture plate with a flat bottom was coated overnight at 4° C. with human vitronectin (0.01 mg/ml, 0.05 ml/well) in phosphate-buffered saline solution (PBS) and then blocked with 0.5% strength BSA (bovine serum albumin). Solutions of the test substances from 10^−10 mol/l to 2×10^−3 mol/l in glucose-containing DMEM medium were prepared and 0.05 ml/well of the solution were added to the plate in each case. The cells which expressed high levels of αvβ3 (for example 15 D) were suspended in glucose-containing DMEM medium and the suspension was adjusted to a content of 25,000 cells/0.05 ml of medium. 0.05 ml of this cell suspension was added to each well and the plate was incubated at 37° C. for 90 min. The plate was washed 3 times with warm PBS in order to remove unbound cells. The bound cells were lyzed in citrate buffer (25 mM, pH 5.0) which contained 0.25% Triton X-100. The hexoseamidase substrate p-nitrophenyl-N-acetyl-β-D-glucosaminide was then added and the plate was incubated at 37° C. for 90 min. The reaction was stopped with a glycine (50 mM)/EDTA (5 mM) buffer (pH 10.4) and the absorption of each well was measured at 405 to 650 nm. The data were analyzed according to standard methods.

[2] = target: T1, human vitronectin receptor αvβ3 (Homo sapiens, UniProt P05106+P06756); test: Kistrin binding assay (αvβ3 ELISA test, K/VnR); details: inhibition of binding of kistrin to human vitronectin receptor αvβ3, ELISA
T1 construct: Human vitronectin receptor is obtained from the human placenta according to the method of Pytela et al; from tissue; host or cells: human placenta (alternative: 293 cells co-transfected with αv and β3 DNA)
T1 sequence (P06756 31-889 limits assumed): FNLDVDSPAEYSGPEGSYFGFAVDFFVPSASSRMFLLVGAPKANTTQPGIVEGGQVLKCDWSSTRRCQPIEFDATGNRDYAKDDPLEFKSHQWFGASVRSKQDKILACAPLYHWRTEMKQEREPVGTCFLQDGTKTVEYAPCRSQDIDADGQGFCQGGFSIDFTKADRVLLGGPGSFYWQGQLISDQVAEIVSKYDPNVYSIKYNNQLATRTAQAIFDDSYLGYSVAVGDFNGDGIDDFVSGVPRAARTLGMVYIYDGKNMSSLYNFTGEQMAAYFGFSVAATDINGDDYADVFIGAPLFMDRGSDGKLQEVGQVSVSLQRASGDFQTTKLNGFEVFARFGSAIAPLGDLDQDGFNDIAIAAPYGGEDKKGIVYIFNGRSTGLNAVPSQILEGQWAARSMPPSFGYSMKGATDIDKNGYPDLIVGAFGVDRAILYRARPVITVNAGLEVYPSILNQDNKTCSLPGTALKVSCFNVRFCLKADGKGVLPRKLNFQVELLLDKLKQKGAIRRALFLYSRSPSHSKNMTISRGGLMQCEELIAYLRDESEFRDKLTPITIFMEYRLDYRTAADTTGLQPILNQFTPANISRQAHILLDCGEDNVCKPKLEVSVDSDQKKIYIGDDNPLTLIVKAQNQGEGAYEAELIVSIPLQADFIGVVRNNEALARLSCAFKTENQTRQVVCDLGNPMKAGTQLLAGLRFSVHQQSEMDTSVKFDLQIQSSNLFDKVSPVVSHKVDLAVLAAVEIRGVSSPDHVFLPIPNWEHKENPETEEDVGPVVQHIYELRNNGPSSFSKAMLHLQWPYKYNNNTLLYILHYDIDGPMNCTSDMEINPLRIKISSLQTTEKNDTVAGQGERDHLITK
T1 sequence (P06756 891-1048 partner limits assumed): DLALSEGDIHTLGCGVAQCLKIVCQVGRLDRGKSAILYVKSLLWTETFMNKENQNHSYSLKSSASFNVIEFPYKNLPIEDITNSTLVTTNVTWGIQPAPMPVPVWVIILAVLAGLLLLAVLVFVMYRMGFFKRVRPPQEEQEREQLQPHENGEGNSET
T1 sequence (P05106 27-788): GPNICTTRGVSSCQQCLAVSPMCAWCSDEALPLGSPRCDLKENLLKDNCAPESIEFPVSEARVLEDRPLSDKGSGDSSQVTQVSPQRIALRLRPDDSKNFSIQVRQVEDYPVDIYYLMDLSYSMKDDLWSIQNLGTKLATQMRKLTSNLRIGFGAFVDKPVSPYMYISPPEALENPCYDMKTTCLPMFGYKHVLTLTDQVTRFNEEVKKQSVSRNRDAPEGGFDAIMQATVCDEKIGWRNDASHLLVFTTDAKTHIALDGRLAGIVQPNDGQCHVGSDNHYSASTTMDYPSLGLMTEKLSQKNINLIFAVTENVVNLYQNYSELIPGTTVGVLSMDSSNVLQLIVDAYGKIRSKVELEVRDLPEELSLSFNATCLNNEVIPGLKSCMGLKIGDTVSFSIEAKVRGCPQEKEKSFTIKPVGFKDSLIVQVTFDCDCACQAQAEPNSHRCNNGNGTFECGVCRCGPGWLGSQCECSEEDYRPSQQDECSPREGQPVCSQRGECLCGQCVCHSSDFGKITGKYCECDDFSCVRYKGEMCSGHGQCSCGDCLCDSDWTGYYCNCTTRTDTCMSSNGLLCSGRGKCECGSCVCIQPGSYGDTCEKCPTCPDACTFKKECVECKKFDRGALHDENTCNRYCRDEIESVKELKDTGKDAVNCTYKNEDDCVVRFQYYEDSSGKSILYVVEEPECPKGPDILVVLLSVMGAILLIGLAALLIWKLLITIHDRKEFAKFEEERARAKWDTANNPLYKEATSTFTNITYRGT
Excerpt: The inhibition of the binding of kistrin to human vitronectin receptor (VnR) described below is a test method by which the antagonistic action of the compounds of the invention on the vitronectin receptor αvβ3 can be determined (αvβ3 ELISA Test; the test method is abbreviated as “K/VnR” in the listing of the test results).
Kistrin is purified according to the methods of Dennis et al., as described in Proc. Natl. Acad. Sci. USA 87 (1989) 2471 and Proteins: Structure, Function and Genetics 15 (1993) 312.
Purification of Human Vitronectin Receptor (αvβ3)
Human vitronectin receptor is obtained from the human placenta according to the method of Pytela et al., Methods Enzymol. 144 (1987) 475. Human vitronectin receptor αvβ3 can also be obtained from some cell lines (for example from 293 cells, a human embryonic kidney cell line) which are co-transfected with DNA sequences for both subunits αv and β3 of the vitronectin receptor. The subunits are extracted with octyl glycoside and then chromatographed through concanavalin A, heparin-Sepharose and S-300.
Murine monoclonal antibodies which are specific for the β3 subunits of the vitronectin receptor, are prepared according to the method of Newman et al., Blood, 1985, 227, or by a similar process. The rabbit Fab 2 anti-mouse Fc conjugate to horseradish peroxidase (anti-mouse Fc HRP) was obtained from Pel Freeze (Catalog No. 715 305-1).
The ability of substances to inhibit the binding of kistrin to the vitronectin receptor can be determined using an ELISA test. For this purpose, Nunc 96-well microtiter plates are coated with a solution of kistrin (0.002 mg/ml) according to the method of Dennis et al., as described in Proteins: Structure, Function and Genetics 15 (1993) 312. The plates are then washed twice with PBS/0.05% Tween-20 and blocked by incubating (60 min) with bovine serum albumin (BSA, 0.5%, RIA grade or better) in buffer solution (Tris-HCl (50 mM), NaCl (100 mM), MgCl2 (1 mM), CaCl2 (1 mM), MnCl2 (1 mM), pH 7). Solutions of known inhibitors and of the test substances are prepared in concentrations from 2×10^−12 to 2×10^−6 mol/l in assay buffer (BSA (0.5%, RIA grade or better); Tris-HCl (50 mM); NaCl (100 mM), MgCl2 (1 mM), CaCl2 (1 mM), MnCl2 (1 mM), pH 7). The blocked plates are emptied, and in each case 0.025 ml of this solution which contains a defined concentration (2×10^−12 to 2×10^−6 mol/l) either of a known inhibitor or of a test substance, are added to each well. 0.025 ml of a solution of the vitronectin receptor in assay buffer (0.03 mg/ml) is pipetted into each well of the plate and the plate is incubated at room temperature for 60-180 min on a shaker. In the meantime, a solution (6 ml/plate) of a murine monoclonal antibody specific for the β3 subunit of the vitronectin receptor is prepared in assay buffer (0.0015 mg/ml). A second rabbit antibody (0.001 ml of stock solution/6 ml of the murine monoclonal anti-β3 antibody solution) which is an anti-mouse Fc HRP antibody conjugate is added to this solution, and this mixture of murine anti-β3 antibody and rabbit anti-mouse Fc HRP antibody conjugate is incubated during the time of the receptor-inhibitor incubation. The test plates are washed four times with PBS solution which contains 0.05% Tween-20, and in each case 0.05 ml/well of the antibody mixture is pipetted into each well of the plate and incubated for 60-180 min. The plate is washed four times with PBS/0.05% Tween-20 and then developed with 0.05 ml/well of a PBS solution which contains 0.67 mg/ml of o-phenylenediamine and 0.012% of H2O2 . Alternatively to this, o-phenylenediamine can be employed in a buffer (pH 5) which contains Na3PO4 and citric acid. The color development is stopped using 1 N H2SO4 (0.05 ml/well). The absorption for each well is measured at 492-405 nm and the data are evaluated by standard methods.

[3] = system: bone resorption by osteoclasts; test: Pit Assay (osteoclast resorption test); type: cell-based; details: inhibition of bone resorption
Excerpt: The inhibition of bone resorption by the compounds of the invention can be determined, for example, with the aid of an osteoclast resorption test (“Pit Assay”), for example analogously to WO-A-95/32710 which is incorporated herein by reference.

| Structure (SMILES) | pIC50 [1] | pIC50 [2] | pIC50 [3] |
| --- | --- | --- | --- |
| O=C(N[C@@H](Cn1cnc2c(N3CCC(c4ccc5c(n4)NCCC5)CC3)ncnc21)C(=O)O)OCc1ccccc1 [Example 1, (2S)-2-Benzyloxycarbonylamino-3-(6-(4-(5,6,7,8-tetrahydro-[1,8]naphthyridin-2-yl)-piperidin-1-yl)-purin-9-yl)-propionic acid] | 7.11 | 8.00 | – |
| O=C(O)[C@H](Cn1cnc2c(N3CCC(c4ccc5c(n4)NCCC5)CC3)ncnc21)NS(=O)(=O)c1ccccc1 [Example 2, (2S)-2-Benzenesulfonylamino-3-(6-(4-(5,6,7,8-tetrahydro-[1,8]naphthyridin-2-yl)-piperidin-1-yl)-purin-9-yl)-propionic acid] | 7.64 | 8.32 | – |
| CCCCS(=O)(=O)N[C@@H](Cn1cnc2c(N3CCC(c4ccc5c(n4)NCCC5)CC3)ncnc21)C(=O)O [Example 6, (2S)-2-(Butane-1-sulfonylamino)-3-(6-(4-(5,6,7,8-tetrahydro-[1,8]naphthyridin-2-yl)-piperidin-1-yl)-purin-9-yl)-propionic acid] | 6.94 | 7.74 | – |
| O=C(O)[C@H](Cn1cnc2c(N3CCC(c4ccc5c(n4)NCCC5)CC3)ncnc21)NS(=O)(=O)c1cccc2ccccc12 [Example 4, (2S)-2-(Naphthalene-1-sulfonylamino)-3-(6-(4-(5,6,7,8-tetrahydro-[1,8]naphthyridin-2-yl)-piperidin-1-yl)-purin-9-yl)-propionic acid] | 7.62 | 8.19 | > 8.00 |

These reach a higher pIC50 [1]. Values come first.

| pIC50 [1] | pIC50 [2] | pIC50 [3] | Structure (SMILES) |
| --- | --- | --- | --- |
| 7.66 | 8.30 | – | O=C(O)[C@H](Cn1cnc2c(N3CCC(c4ccc5c(n4)NCCC5)CC3)ncnc21)NS(=O)(=O)c1ccc(C(F)(F)F)cc1 [Example 5, (2S)-3-(6-(4-(5,6,7,8-Tetrahydro-[1,8]naphthyridin-2-yl)-piperidin-1-yl)-purin-9-yl)-2-(4-trifluoromethylbenzenesulfonylamino)-propionic acid] |
| 7.82 | 8.29 | 9.52 | O=C(O)[C@H](Cn1cnc2c(N3CCC(c4ccc5c(n4)NCCC5)CC3)ncnc21)NS(=O)(=O)c1ccc(Cl)cc1 [Example 3, (2S)-2-(4-Chlorobenzenesulfonylamino)-3-(6-(4-(5,6,7,8-tetrahydro-[1,8]naphthyridin-2-yl)-piperidin-1-yl)-purin-9-yl)-propionic acid] |
